Reference: the supplement of paper PMC7796163
± gives the uncertainty stated by the source.

Tests used:
Experiment in all cases: CYP enzyme activity (probe substrate metabolite formation) fold change vs solvent control; higher = stronger induction of CYP activity
Conditions in all cases: HepaRG
CYP1A2 = biological target: T1, CYP1A2 (UniProt P05177)
T1 sequence (whole entry): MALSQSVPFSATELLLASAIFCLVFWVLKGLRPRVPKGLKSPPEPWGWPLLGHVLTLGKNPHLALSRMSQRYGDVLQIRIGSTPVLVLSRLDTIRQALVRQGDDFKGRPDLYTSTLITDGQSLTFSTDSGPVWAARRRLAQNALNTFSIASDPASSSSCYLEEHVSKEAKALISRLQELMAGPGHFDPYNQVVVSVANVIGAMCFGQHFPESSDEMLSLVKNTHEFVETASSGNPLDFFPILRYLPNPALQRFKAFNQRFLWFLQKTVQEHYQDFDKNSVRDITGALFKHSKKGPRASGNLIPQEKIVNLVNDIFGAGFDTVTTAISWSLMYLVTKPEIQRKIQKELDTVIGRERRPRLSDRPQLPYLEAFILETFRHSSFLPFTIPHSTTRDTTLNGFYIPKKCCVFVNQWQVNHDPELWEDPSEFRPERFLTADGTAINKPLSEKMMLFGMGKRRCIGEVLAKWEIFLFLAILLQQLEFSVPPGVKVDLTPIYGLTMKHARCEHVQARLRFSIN
Procedure: (§1)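 Differentiated HepaRG cells were treated with 1, 5 or 10 µM of each PAH (0.5% DMSO) for 12, 24 or 48 h, then incubated for 3 h at 37 °C with a cocktail of isoform-specific CYP substrates (phenacetin for CYP1A2, bupropion for CYP2B6, amodiaquine for CYP2C8, tolbutamide for CYP2C9, mephenytoin for CYP2C19, propafenone for CYP2D6, atorvastatin for CYP3A4). Metabolite formation was quantified by LC-MS as a measure of CYP activity and reported as fold change over solvent control (mean ± SD, n=3). Values below the LLOQ were set to half the LLOQ.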

CYP2B6 = biological target: T2, CYP2B6 (UniProt P20813)
T2 sequence (whole entry): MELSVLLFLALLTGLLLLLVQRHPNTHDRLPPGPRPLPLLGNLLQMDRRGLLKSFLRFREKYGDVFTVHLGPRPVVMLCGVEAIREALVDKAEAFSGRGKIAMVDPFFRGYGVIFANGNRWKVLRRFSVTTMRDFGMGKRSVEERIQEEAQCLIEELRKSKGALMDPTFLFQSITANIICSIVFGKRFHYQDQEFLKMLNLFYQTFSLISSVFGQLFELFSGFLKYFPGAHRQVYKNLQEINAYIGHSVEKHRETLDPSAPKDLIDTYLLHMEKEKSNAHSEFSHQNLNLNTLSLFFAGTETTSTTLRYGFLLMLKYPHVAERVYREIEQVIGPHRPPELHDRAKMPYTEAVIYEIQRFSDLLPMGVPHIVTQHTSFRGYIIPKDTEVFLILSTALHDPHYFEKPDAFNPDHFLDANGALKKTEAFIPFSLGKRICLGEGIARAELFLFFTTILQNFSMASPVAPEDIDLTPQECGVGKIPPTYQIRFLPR
Procedure: as §1

CYP2C19 = CYP2C19 (UniProt P33261)
Sequence of CYP2C19 (P33261 whole entry): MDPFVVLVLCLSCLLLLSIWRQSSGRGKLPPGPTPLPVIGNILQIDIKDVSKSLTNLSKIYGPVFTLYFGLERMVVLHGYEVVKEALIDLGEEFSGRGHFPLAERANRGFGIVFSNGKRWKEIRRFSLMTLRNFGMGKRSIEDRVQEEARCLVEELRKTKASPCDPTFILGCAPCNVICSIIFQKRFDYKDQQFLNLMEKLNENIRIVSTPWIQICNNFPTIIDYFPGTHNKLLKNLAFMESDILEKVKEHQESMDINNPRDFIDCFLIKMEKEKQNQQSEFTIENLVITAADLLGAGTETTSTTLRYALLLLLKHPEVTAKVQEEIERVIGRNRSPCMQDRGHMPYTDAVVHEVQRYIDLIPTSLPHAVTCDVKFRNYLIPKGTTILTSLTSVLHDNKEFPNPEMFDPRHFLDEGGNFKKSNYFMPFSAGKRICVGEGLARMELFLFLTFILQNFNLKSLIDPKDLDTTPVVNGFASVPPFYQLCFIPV
Procedure: as §1

CYP2C8 = biological target: T3, CYP2C8 (UniProt P10632)
T3 sequence (whole entry): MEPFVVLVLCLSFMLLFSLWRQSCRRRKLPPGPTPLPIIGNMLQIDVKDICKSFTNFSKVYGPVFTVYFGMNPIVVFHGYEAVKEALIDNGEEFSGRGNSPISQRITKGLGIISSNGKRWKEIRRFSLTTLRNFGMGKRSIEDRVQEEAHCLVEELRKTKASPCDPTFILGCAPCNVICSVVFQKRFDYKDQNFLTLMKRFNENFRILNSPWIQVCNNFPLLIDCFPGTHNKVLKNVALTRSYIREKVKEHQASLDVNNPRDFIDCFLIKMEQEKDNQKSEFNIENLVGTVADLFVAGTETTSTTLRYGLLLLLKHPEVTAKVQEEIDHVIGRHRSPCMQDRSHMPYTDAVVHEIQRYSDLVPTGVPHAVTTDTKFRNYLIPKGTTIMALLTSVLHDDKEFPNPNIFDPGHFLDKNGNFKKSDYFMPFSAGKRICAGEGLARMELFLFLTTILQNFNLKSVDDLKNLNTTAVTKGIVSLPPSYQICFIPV
Procedure: as §1

CYP2C9 = CYP2C9 (UniProt P11712)
Sequence of CYP2C9 (P11712 whole entry): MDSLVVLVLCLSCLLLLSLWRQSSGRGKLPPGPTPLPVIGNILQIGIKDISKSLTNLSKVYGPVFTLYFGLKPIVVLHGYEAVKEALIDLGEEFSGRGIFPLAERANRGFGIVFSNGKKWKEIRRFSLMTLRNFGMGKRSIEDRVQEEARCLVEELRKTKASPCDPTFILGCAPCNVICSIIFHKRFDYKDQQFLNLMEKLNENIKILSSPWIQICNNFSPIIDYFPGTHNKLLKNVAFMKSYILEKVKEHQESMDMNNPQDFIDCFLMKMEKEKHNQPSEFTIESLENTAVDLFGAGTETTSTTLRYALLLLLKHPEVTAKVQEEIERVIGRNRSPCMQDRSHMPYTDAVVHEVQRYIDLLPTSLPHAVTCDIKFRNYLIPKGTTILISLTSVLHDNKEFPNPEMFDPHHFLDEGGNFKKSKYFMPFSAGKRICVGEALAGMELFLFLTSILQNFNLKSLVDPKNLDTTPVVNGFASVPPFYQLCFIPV
Procedure: as §1

CYP2D6 = CYP2D6 (UniProt P10635)
Sequence of CYP2D6 (P10635 whole entry): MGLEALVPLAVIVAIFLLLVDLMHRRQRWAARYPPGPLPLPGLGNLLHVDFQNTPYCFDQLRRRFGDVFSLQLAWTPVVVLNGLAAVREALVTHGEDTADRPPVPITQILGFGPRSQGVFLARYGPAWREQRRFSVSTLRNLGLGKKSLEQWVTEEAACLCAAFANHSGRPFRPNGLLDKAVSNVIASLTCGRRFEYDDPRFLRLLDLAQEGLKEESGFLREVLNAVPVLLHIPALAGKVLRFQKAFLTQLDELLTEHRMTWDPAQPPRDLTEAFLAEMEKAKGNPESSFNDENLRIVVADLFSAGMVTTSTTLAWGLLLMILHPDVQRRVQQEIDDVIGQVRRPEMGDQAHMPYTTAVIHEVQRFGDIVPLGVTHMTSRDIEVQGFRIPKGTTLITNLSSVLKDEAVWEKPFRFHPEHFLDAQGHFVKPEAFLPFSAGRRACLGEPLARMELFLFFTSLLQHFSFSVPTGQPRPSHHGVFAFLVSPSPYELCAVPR
Procedure: as §1

CYP3A4 = CYP3A4 (UniProt P08684)
Sequence of CYP3A4 (P08684 whole entry): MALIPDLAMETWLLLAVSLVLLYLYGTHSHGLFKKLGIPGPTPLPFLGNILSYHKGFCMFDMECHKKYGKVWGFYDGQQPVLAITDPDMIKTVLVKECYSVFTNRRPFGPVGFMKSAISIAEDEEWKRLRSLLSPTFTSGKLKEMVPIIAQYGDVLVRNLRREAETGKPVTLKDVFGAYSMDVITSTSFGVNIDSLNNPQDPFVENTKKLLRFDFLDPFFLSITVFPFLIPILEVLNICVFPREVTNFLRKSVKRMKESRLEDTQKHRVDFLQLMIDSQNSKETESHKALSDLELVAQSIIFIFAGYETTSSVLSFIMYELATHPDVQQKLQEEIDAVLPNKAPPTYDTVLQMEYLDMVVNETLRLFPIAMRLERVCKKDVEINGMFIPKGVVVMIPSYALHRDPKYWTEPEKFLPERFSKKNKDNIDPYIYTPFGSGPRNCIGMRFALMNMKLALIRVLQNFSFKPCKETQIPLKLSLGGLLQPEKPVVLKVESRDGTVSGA
Procedure: as §1

c1ccc2c(c1)ccc1ccc3ccccc3c12 [benzo[c]phenanthrene]
CYP enzyme activity
Conditions	CYP1A2	CYP2B6	CYP2C8	CYP2C9	CYP2C19	CYP2D6	CYP3A4
1 µM, treatment time 12 h	1.2	1.02	0.945	1	0.916	0.94	0.867
1 µM, treatment time 24 h	1.09	1.04	0.9596	0.961	0.911	0.773	0.843
1 µM, treatment time 48 h	0.925	0.921	0.962	0.922	1.04	0.772	0.834
5 µM, treatment time 12 h	1.34	1.31	0.947	1.02	1.04	0.992	0.926
5 µM, treatment time 24 h	1.28	1.81	1.04	1.15	1.09	1.05	1.002
5 µM, treatment time 48 h	1.28	2.27	1.09	1.28	1.19	1.05	1.13
10 µM, treatment time 12 h	1.5	1.27	0.958	1.01	1.03	1.04	0.849
10 µM, treatment time 24 h	1.5	2.02	1.13	1.103	1.03	1.13	0.999
10 µM, treatment time 48 h	1.46	2.87	1.08	1.21	1.19	1.08	1.2

c1ccc2c3c(ccc2c1)-c1cccc2cccc-3c12 [benzo[j]fluoranthene]
CYP enzyme activity
Conditions	CYP1A2	CYP2B6	CYP2C8	CYP2C9	CYP2C19	CYP2D6	CYP3A4
1 µM, treatment time 12 h	3.57	1.02	0.921	0.852	0.86	1.28	0.809
1 µM, treatment time 24 h	2.09	1.27	0.903	0.88	0.826	0.87	0.702
1 µM, treatment time 48 h	1.1	0.856	0.974	0.835	0.948	0.759	0.666
5 µM, treatment time 12 h	6.59	1.21	0.894	0.826	0.97	1.94	0.883
5 µM, treatment time 24 h	12.1	2.01	0.779	0.844	0.9	1.61	0.728
5 µM, treatment time 48 h	4.57	1.32	0.798	0.734	0.882	0.711	0.694
10 µM, treatment time 12 h	1.21	1.04	0.785	0.731	0.84	1.13	0.916
10 µM, treatment time 24 h	23	2.03	0.751	0.771	0.867	2.94	0.715
10 µM, treatment time 48 h	9.96	1.83	0.688	0.75	0.914	0.838	0.636

c1ccc2cc3c(cc2c1)-c1cccc2cccc-3c12 [benzo[k]fluoranthene]
CYP enzyme activity
Conditions	CYP1A2	CYP2B6	CYP2C8	CYP2C9	CYP2C19	CYP2D6	CYP3A4
1 µM, treatment time 12 h	7.62	0.673	0.918	0.808	0.834	1.93	0.73
1 µM, treatment time 24 h	15.3	0.763	0.793	0.744	0.702	1.9	0.633
1 µM, treatment time 48 h	25.3	0.806	0.812	0.704	0.832	1.36	0.544
5 µM, treatment time 12 h	9.06	0.751	0.875	0.76	0.854	2.35	0.89
5 µM, treatment time 24 h	17.8	0.806	0.682	0.67	0.723	2.71	0.676
5 µM, treatment time 48 h	27.3	0.574	0.278	0.396	0.577	1.62	0.342
10 µM, treatment time 12 h	5.83	0.741	0.759	0.725	0.76	2.05	0.93
10 µM, treatment time 24 h	16.9	0.923	0.625	0.594	0.754	2.98	0.732
10 µM, treatment time 48 h	17.5	0.446	0.164	0.312	0.455	1.49	0.283

c1ccc2c(c1)cc1ccc3cccc4c5ccccc5c2c1c34 [dibenzo[a,l]pyrene]
CYP enzyme activity
Conditions	CYP1A2	CYP2B6	CYP2C8	CYP2C9	CYP2C19	CYP2D6	CYP3A4
1 µM, treatment time 12 h	2.04	0.84	1	0.921	0.768	1.11	0.927
1 µM, treatment time 24 h	1.35	0.906	0.987	0.918	0.823	0.798	0.778
1 µM, treatment time 48 h	0.763	0.735	0.78	0.804	0.763	0.552	0.619
5 µM, treatment time 12 h	1.61	0.611	0.644	0.753	0.741	1.28	0.768
5 µM, treatment time 24 h	2.27	1.19	0.714	0.89	0.781	0.791	0.672
5 µM, treatment time 48 h	0.603	0.584	0.326	0.472	0.53	0.288	0.385
10 µM, treatment time 12 h	0.515	0.313	0.627	0.395	0.469	1.19	0.543
10 µM, treatment time 24 h	1.39	1.22	0.639	0.732	0.689	0.789	0.471
10 µM, treatment time 48 h	0.286	0.354	0.166	0.233	0.257	0.212	0.118

c1ccc2c(c1)-c1cccc3cccc-2c13 [fluoranthene]
CYP enzyme activity
Conditions	CYP1A2	CYP2B6	CYP2C8	CYP2C9	CYP2C19	CYP2D6	CYP3A4
1 µM, treatment time 12 h	1.01	1.2	1.01	1.02	0.972	0.989	0.901
1 µM, treatment time 24 h	0.943	1.58	1.06	1.09	0.974	0.981	0.98
1 µM, treatment time 48 h	1.07	2.05	1.14	1.18	1.1	0.91	1.03
5 µM, treatment time 12 h	1.33	1.35	0.987	1.17	1.09	1.16	1.01
5 µM, treatment time 24 h	1.09	2.28	1.07	1.3	1.16	1.11	1.16
5 µM, treatment time 48 h	1.27	3.59	1.14	1.34	1.26	1.06	1.28
10 µM, treatment time 12 h	1.41	1.25	0.988	1.15	0.999	1.18	1
10 µM, treatment time 24 h	1.07	2.01	1.04	1.11	0.995	1.08	1.03
10 µM, treatment time 48 h	1.312	3.74	1.2	1.39	1.22	1.06	1.35

c1ccc2c(c1)ccc1ccccc12 [phenanthrene]
CYP enzyme activity
Conditions	CYP1A2	CYP2B6	CYP2C8	CYP2C9	CYP2C19	CYP2D6	CYP3A4
1 µM, treatment time 12 h	0.969	1.02	0.995	1.02	0.946	0.961	0.891
1 µM, treatment time 24 h	0.862	1.18	1.01	1.05	0.961	0.97	0.828
1 µM, treatment time 48 h	0.839	1.15	1.01	1.06	0.981	0.879	0.844
5 µM, treatment time 12 h	1.04	1.25	0.991	1.08	1.06	1.08	0.961
5 µM, treatment time 24 h	1.18	1.98	1.05	1.27	1.15	1.19	1.1
5 µM, treatment time 48 h	1.09	2.15	1.08	1.23	1.16	1.05	1.1
10 µM, treatment time 12 h	1.1	1.12	0.995	1.03	0.985	1.03	0.928
10 µM, treatment time 24 h	1.06	1.75	1.04	1.17	1.11	0.986	0.994
10 µM, treatment time 48 h	1.11	2.29	1.08	1.34	1.17	1.03	1.11
